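Compound exposure: 48 hours, 5 concentrations, 96-well plates. Here, GI50 denotes the concentration required for 50% inhibition of growth. TGI marks complete inhibition of growth.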 Bounds are passed on as bounds.

Results on eleven compounds are retold here after PubChem BioAssay (NCI).

Some test systems named below: SF-539 CNS; UACC-257 melanoma; HS 578T breast; KM12 colon; 786-0 renal; T-47D breast; M14 melanoma; SNB-75 CNS.
Common to all, as to assay: DTP human tumour cell line panel, 48 h

With `O=C(Nc1cccc(-n2ccc3c(NC(=O)c4ccccc4)nccc32)c1)c1cccc(C(F)(F)F)c1`, the GI50 with SF-539 CNS is 0.0314 µM; in the assay with UACC-257 melanoma, 0.0804 µM; in the assay with HS 578T breast it was 0.0305 µM; with KM12 colon, 0.0341 µM; in the assay with 786-0 renal it was 0.0645 µM. The TGI was 2.14 µM with SF-539 CNS; 19.9 µM in the assay with UACC-257 melanoma; 3.28 µM in the assay on HS 578T breast; 1.4 µM with KM12 colon; 1.9 µM with 786-0 renal.

As for `COc1c(C2CC(=O)Nc3c2cnn3Cc2ccco2)cc2c(c1OC)OCO2` (configuration not stated), the GI50 was 0.45 µM with T-47D breast; 0.434 µM in the assay with SF-539 CNS; 0.49 µM with HS 578T breast; 0.408 µM in the assay with M14 melanoma; 0.439 µM with KM12 colon; 0.917 µM with 786-0 renal. In the assay with SNB-75 CNS, the GI50 was 0.295 µM. Also, the TGI in the assay on T-47D breast is more than 100 µM; in the assay with SF-539 CNS, 4.36 µM; in the assay with HS 578T breast it was more than 100 µM; with M14 melanoma it was more than 100 µM; in the assay on KM12 colon, more than 100 µM; with 786-0 renal it was more than 100 µM. For the same compound, the TGI with SNB-75 CNS was more than 100 µM.

For the compound `C=C1C(O)C2CCC(C)(C)C(=O)C2=C(CC(C)C)C12CC2` (configuration not stated), the GI50 with SF-539 CNS was 70.7 µM; in the assay with UACC-257 melanoma, 88 µM; in the assay with HS 578T breast it was 18.9 µM; in the assay on M14 melanoma it was 80.8 µM; with KM12 colon it was 47.1 µM; in the assay on 786-0 renal, more than 100 µM. The GI50 in the assay with SNB-75 CNS was 93.1 µM. In addition, the TGI with SF-539 CNS was more than 100 µM; with UACC-257 melanoma, more than 100 µM; in the assay with HS 578T breast, 92.9 µM; with M14 melanoma, more than 100 µM; in the assay with KM12 colon, more than 100 µM; with 786-0 renal, more than 100 µM. In addition, the TGI in the assay with SNB-75 CNS is more than 100 µM.

As to `COc1ccc(C(=O)Nc2ncc(Cc3ccc(Cl)cc3)s2)cc1`, the GI50 is 0.047 µM in the assay on SF-539 CNS; 20 µM with UACC-257 melanoma; 0.0407 µM with HS 578T breast; 0.0422 µM in the assay on M14 melanoma; 0.0373 µM in the assay on KM12 colon; 0.0779 µM in the assay with 786-0 renal. Further, the GI50 in the assay with SNB-75 CNS was 0.0424 µM. For the same compound, the TGI with SF-539 CNS is 0.516 µM; in the assay on UACC-257 melanoma, more than 100 µM; in the assay on HS 578T breast it was more than 77 µM; with M14 melanoma it was more than 100 µM; in the assay with KM12 colon, more than 37.1 µM; with 786-0 renal, more than 100 µM. For the same compound, in the assay with SNB-75 CNS, the concentration for total growth inhibition (TGI) is more than 100 µM.

For the compound `O=C1/C(=C/c2ccc(F)cc2)CCOc2ccc([N+](=O)[O-])cc21`, the GI50 is 2.52 µM in the assay with SF-539 CNS; 2.62 µM in the assay on UACC-257 melanoma; 4.94 µM with HS 578T breast; 2.22 µM in the assay on M14 melanoma; 1.83 µM in the assay on KM12 colon; 1.8 µM in the assay with 786-0 renal. The TGI with SF-539 CNS was 5.99 µM; in the assay with UACC-257 melanoma, 6.29 µM; in the assay with HS 578T breast, 47.1 µM; in the assay on M14 melanoma it was 5.61 µM; in the assay on KM12 colon it was 4.4 µM; in the assay with 786-0 renal it was 3.5 µM.

Take `O=C(/C=C/c1ccc(Cl)cc1)c1ccc(Cl)cc1Cl`: the GI50 in the assay on T-47D breast is 3.25 µM; in the assay with SF-539 CNS, 9.68 µM; in the assay with UACC-257 melanoma it was 10.4 µM; in the assay on HS 578T breast, 11.7 µM; in the assay with M14 melanoma it was 10.9 µM; in the assay with KM12 colon it was 5.73 µM. Moreover, in the assay with 786-0 renal, the GI50 was 7.05 µM. The TGI came out at 22.3 µM with T-47D breast; 17.9 µM in the assay with SF-539 CNS; 18.5 µM in the assay on UACC-257 melanoma; 25.9 µM with HS 578T breast; 24.2 µM with M14 melanoma; 13.8 µM in the assay with KM12 colon. In the assay on 786-0 renal, the TGI turned out to be 15.8 µM.

For the compound `CSc1nc(SC)c2c(CN=[N+]=[N-])c(Br)n(Cc3ccccc3)c2n1`, the TGI with T-47D breast, in the assay on SF-539 CNS, in the assay on HS 578T breast, in the assay on M14 melanoma, in the assay on KM12 colon and in the assay with 786-0 renal was more than 100 µM each time. This compound displayed a TGI in the assay on SNB-75 CNS of more than 100 µM.

For the compound `CCC(C)C1NC(=O)c2nc(oc2-c2ccccc2)-c2csc(n2)-c2csc(n2)-c2nc(oc2C)-c2coc(n2)CNC(=O)C(C(C)CC)NC1=O` (configuration not stated), the concentration for 50% growth inhibition (GI50) with SF-539 CNS is 0.111 µM; with HS 578T breast, 0.0424 µM; with KM12 colon, 0.0223 µM; with 786-0 renal, 0.0499 µM; in the assay on SNB-75 CNS it was 0.0354 µM. The TGI in the assay on SF-539 CNS was found to be 0.239 µM; with HS 578T breast, 0.218 µM; in the assay on KM12 colon it was 0.119 µM; in the assay with 786-0 renal, 0.172 µM; in the assay with SNB-75 CNS, 0.175 µM.

For `CC(=O)OCC1OC(O[C@@H]2C[C@H]3C(C)(C)[C@H](OC(C)=O)CC[C@]3(C)[C@H]3CCC4=C([C@@H](C)C[C@@H](O)[C@H](O)C(C)(C)O)CC[C@@]4(C)[C@@]32C)C(O)C(O)C1O` (some centres not stated), the GI50 in the assay on T-47D breast is 16.5 µM; with UACC-257 melanoma, 16.3 µM; in the assay on HS 578T breast it was 15.2 µM; with M14 melanoma, 17.3 µM; in the assay with KM12 colon it was 22.6 µM; in the assay with 786-0 renal it was 18.2 µM. Besides, the GI50 with SNB-75 CNS is 13.2 µM. Further, the TGI was determined as 30.3 µM with T-47D breast; 30.3 µM in the assay on UACC-257 melanoma; 32.8 µM in the assay with HS 578T breast; 31.4 µM with M14 melanoma; 37.1 µM with KM12 colon; 32.7 µM in the assay on 786-0 renal. The concentration for total growth inhibition (TGI) in the assay on SNB-75 CNS is 26 µM.

On to `COc1cc2c3c(cccc3c1)C(=O)N(CCN1CCCC1)C2=O`, for which the GI50 is 2.5 µM in the assay with T-47D breast; 1.98 µM with SF-539 CNS; 3.98 µM with HS 578T breast; 2.38 µM in the assay with M14 melanoma; 2.88 µM with KM12 colon; 2.92 µM in the assay on 786-0 renal. Further, in the assay on SNB-75 CNS, the GI50 is 1.63 µM. The TGI is 8.76 µM with T-47D breast; 5.14 µM in the assay on SF-539 CNS; 13 µM in the assay with HS 578T breast; 5.66 µM with M14 melanoma; more than 100 µM with KM12 colon; more than 100 µM in the assay with 786-0 renal. The compound further displayed a TGI in the assay with SNB-75 CNS of 3.65 µM.

In the case of `Cc1ccn2c3c(c(C(=O)O)c2c1)C(=O)c1ccccc1C3=O`, the GI50 in the assay with T-47D breast was more than 100 µM; with SF-539 CNS, 4.46 µM; in the assay with UACC-257 melanoma, 4.41 µM; with HS 578T breast, 3.71 µM; in the assay with M14 melanoma, 1.11 µM; in the assay with KM12 colon, 9.31 µM. Also, the GI50 with 786-0 renal is more than 87.4 µM. Moreover, the TGI is more than 100 µM with T-47D breast; 64.7 µM in the assay on SF-539 CNS; more than 60.3 µM in the assay with UACC-257 melanoma; 29.8 µM in the assay on HS 578T breast; 2.64 µM with M14 melanoma; more than 100 µM in the assay with KM12 colon. This compound also showed a TGI in the assay on 786-0 renal of more than 100 µM.

Usually GI50 stands for the concentration giving 50% growth inhibition. Broadly, the TGI is the concentration giving total growth inhibition. Read a high TGI as lower sensitivity of the cells.
